Consider five molecules from US9840509B2, “Heterocyclic compounds” (CADILA HEALTHCARE LIMITED, priority 2014, dated 2017).

The subject of one experiment is CIA Arthritis Model. Put plainly: Collagen induced arthritis (CIA) study in mice. Type of experiment: in vivo. The note with it: Dose: 10 mpk, po, Mean ± SD, n = 8. How it is done:
(§1) All the animal experiments were carried out in female rats and mice, bred in-house. Animals were housed in groups of 6 animals per cage, for a week, in order to habituate them to vivarium conditions (25±4° C., 60-65% relative humidity, 12: 12 h light: dark cycle, with lights on at 7.30 am). All the animal experiments were carried out according to the internationally valid guidelines following approval by the ‘Zydus Research Center animal ethical committee’.
Protocol for Collagen Induced Arthritis (CIA) Study in Mice
CIA is a frequently used animal model of human RA (Courtenay, J. S., Dallman, M. J., Dayan, A. D., Martin, A. and Mosedale, B., Nature, 1980, 283, 666-668; Bevaart, L., Vervoordeldonk, M. J., Tak, P. P., Methods Mol. Biol., 2010, 602, 181-192). Following 7 days acclimation, mice were randomly assigned to groups according body weight. Mice were immunized subcutaneously in the tail using bovine type II collagen mix in complete Freund's adjuvant (CFA). Twenty-one days after the first immunization, mice were given booster dose of collagen in incomplete Freund's adjuvant (IFA). Mice were monitored every other day after the booster dose for the development of arthritis. Mice were recruited for the study once clinical signs were visible. Eight animals were assigned each of three groups [vehicle, positive control and test compounds] and treatment was continued for four weeks and percentage inhibition in clinical score is recorded as per graded score. Body weights of the animals were also recorded 3 times a week as a measure of treatment related side effect, paw thickness measured twice a week and blood serum are collected at termination for cytokines profile.

Experiment [1] addresses T1, recombinant purified human BTK (Homo sapiens, UniProt Q06187).
T1 construct: purchased SignalChem, USA
Put plainly: In vitro BTK kinase assay on ADP Glo platform. Type of experiment: biochemical. The note with it: 2 hr room temperature, read-out: In-vitro BTK inhibitory activity: IC50. The gist of the method:
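Recombinant human BTK (3 ng/reaction) with compound dilutions in Tris pH 7.5, MgCl2/MnCl2, BSA, DTT; started with 50 µM ATP (final) and polyGln4Tyr1 substrate, 2 h at room temperature. ADP formed detected by ADP-Glo luminescence; IC50 by nonlinear fit versus uninhibited enzyme as 100%.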
(In general: In ADP-Glo the light output rises with the ADP produced.)

A further experiment has as its system TMD-8 cells. Put plainly: Diffused large B cell lymphoma xenografts using TMD-8 cell line. Type of experiment: in vivo, Female SCID mice. To be noted: Dose: 10 mpk, po, SCID mice, Mean ± SD, n = 8. On the procedure:
as §1
Diffused Large B Cell Lymphoma Xenografts Using TMD-8 Cell Line
Female SCID mice were inoculated sc with 10×10^6 TMD-8 cells in 0.1 mL of PBS to the right flank. Animals were observed twice weekly for occurrence of tumor. Once the tumors became palpable (around 100 mm^3) around 14 days after injection, treatment was initiated via oral route. Tumor volume was determined every alternate day using digital calipers and the tumor volume was calculated using the formula: [length/2]×[width^2]. Body weights of the animals were also recorded 3 times a week as a measure of treatment related side effect. Treatment was continued for two more weeks and inhibition of tumor volume compared to vehicle control was considered as efficacy endpoint.

What is called IC50 is the concentration that inhibits the measured activity by half.

T1 sequence (Q06187 whole entry): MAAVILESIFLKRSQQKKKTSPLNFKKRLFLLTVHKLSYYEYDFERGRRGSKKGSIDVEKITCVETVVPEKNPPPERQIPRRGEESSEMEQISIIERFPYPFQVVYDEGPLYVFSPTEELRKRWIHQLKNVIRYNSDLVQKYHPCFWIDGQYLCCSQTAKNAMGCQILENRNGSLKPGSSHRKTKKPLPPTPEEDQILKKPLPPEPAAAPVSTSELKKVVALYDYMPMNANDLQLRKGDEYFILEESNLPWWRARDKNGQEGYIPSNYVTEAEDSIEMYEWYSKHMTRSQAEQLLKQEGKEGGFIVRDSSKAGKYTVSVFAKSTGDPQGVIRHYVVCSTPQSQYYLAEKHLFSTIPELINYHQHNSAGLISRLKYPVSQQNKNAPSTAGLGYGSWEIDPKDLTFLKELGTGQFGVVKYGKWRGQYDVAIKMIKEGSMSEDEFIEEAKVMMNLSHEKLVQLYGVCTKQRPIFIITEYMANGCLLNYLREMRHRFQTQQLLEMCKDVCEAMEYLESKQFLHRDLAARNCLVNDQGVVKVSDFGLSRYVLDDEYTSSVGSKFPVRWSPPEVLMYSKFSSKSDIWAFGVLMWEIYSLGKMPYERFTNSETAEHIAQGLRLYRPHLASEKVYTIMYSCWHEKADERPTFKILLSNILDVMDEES

As to `C=CC(=O)N1CC2CC(n3nc(-c4ccc(C(=O)N(C)c5cc(C)ccn5)cc4)c4c(N)ncnc43)CC2C1` (stereo not drawn) [Compound 54, 4-(1-(2-acryloyloctahydrocyclopenta[c]pyrrol-5-yl)-4-amino-1H-pyrazolo[3,4-d]pyrimidin-3-yl)-N-methyl-N-(4-methylpyridin-2-yl)benzamide], the “% inhibition of clinical score, Day-28, in CIA Arthritis Model” value (from here on “% inhibition of clinical score”) in the experiment with CIA Arthritis Model was determined as 98 ± 4.5%. Besides, the IC50 in experiment [1] is 0.1 nM. Moreover, in the experiment on TMD-8 cells, the “% Inhibition in tumor volume, Day-16, in TMD-8 Xenografts Model” value (“% Inhibition in tumor volume” for short) came to 92.1 ± 13.1%.

Consider `C=CC(=O)N1CC2CC(n3nc(-c4ccc(-c5nnc(-c6cnccn6)s5)cc4)c4c(N)ncnc43)CC2C1` (stereo not drawn) [Compound 46, 1-(5-(4-amino-3-(4-(5-(pyrazin-2-yl)-1,3,4-thiadiazol-2-yl)phenyl)-1H-pyrazolo[3,4-d]pyrimidin-1-yl)hexahydrocyclopenta[c]pyrrol-2(1H)-yl)prop-2-en-1-one], for which, in the experiment on CIA Arthritis Model, the “% inhibition of clinical score” value is reported as 88 ± 7.1%. Moreover, the IC50 in experiment [1] came to 1 nM. For the same molecule, in the experiment with TMD-8 cells, the “% Inhibition in tumor volume” value was found to be 54.3 ± 9.1%.

On to `C=CC(=O)N1CC2CC(n3nc(-c4ccc(NC(=O)c5ccccn5)cc4)c4c(N)ncnc43)CC2C1` (stereo not drawn) [Compound 32, N-(4-(1-(2-acryloyloctahydrocyclopenta[c]pyrrol-5-yl)-4-amino-1H-pyrazolo[3,4-d]pyrimidin-3-yl)phenyl)picolinamide], for which, in the experiment with CIA Arthritis Model, the “% inhibition of clinical score” value was determined as 100 ± 3.9%. In addition, the concentration for half-maximal inhibition (IC50) in experiment [1] was 4 nM. For the same molecule, in the experiment with TMD-8 cells, the “% Inhibition in tumor volume” value is recorded as 56.1 ± 8.2%.

Consider `C=CC(=O)N1CC2CC(n3nc(-c4ccc(C(=O)Nc5cc(C)ccn5)cn4)c4c(N)ncnc43)CC2C1` (stereo not drawn) [Compound 42, 6-(1-(2-acryloyloctahydrocyclopenta[c]pyrrol-5-yl)-4-amino-1H-pyrazolo[3,4-d]pyrimidin-3-yl)-N-(4-methylpyridin-2-yl)nicotinamide], for which the “% inhibition of clinical score” value with CIA Arthritis Model turned out to be 100 ± 4.2%. In addition, in experiment [1], the IC50 amounted to 0.1 nM. Moreover, the “% Inhibition in tumor volume” value with TMD-8 cells was found to be 62.2 ± 8.8%.

With `C=CC(=O)N1CC2CC(N3C(=O)N(c4ccc(Oc5ccccc5)cc4)C4C(N)=NC=NC43)CC2C1` (stereo not drawn) [Compound 25, 9-(2-acryloyloctahydrocyclopenta[c]pyrrol-5-yl)-6-amino-7-(4-phenoxyphenyl)-5,7-dihydro-4H-purin-8(9H)-one], the “% inhibition of clinical score” value with CIA Arthritis Model was determined as 90.1 ± 6.3%. Further, the IC50 in experiment [1] was 5 nM. Further, in the experiment on TMD-8 cells, the “% Inhibition in tumor volume” value came to 50.2 ± 10.1%.
